Series [1] concerns 4T1 cells. Nature of the series: Cell viability assay (MTT). The class given is cell-based, murine. The following applies: Mus musculus, 24 hours. How it is done: Human triple negative breast cancer cells MDA-MB-231 and murine mammary cancer cells 4T1 were obtained from National Centre for Cell Sciences, Pune, India. Cells were maintained in complete Dulbecco’s Modified Eagle Medium (DMEM) supplemented with 10% FBS and 1% penicillin/streptomycin, and incubated at 37°C in 5% CO2 - 95% humidified atmosphere. Cells in log phase of growth was used for all subsequent experiments ([21]). 1 x 10^5 viable cells were seeded in a 96-well plate. […] Following treatment, wells were washed to remove the media and 100 µl of PBS was added to each well. Finally, 10 µl of MTT solution (5 mg/mL in PBS) was added and incubated at 37°C for 3 hours. The purple crystals formed were dissolved in 150 µl of DMSO. Absorbance was measured at 570 nm in a multi-plate reader Varioskan™ Lux (Thermo Fisher Scientific, USA; [21]).

Series [2] relates to cells isolated from the liver, kidney and lungs. Nature of the series: MTT viability of cells isolated from organs of treated mice. The following applies: MTT assay. It counts as in vivo, BALB/c mice. The procedure:
Tissue samples were immersed in 9 parts of serum-free DMEM and 1 part of enzyme cocktail. Digestion was performed at 37°C for 4 hours. Isolated cells were washed well to remove any remaining enzyme, resuspended in ice-cold PBS and filtered through a single cell mesh to dissociate cell clumps. Cell viability was checked using trypan blue dye exclusion test before using the cells for further assays ([21]). 1 x 10^5 viable cells were seeded in a 96-well plate. […] Following treatment, wells were washed to remove the media and 100 µl of PBS was added to each well. Finally, 10 µl of MTT solution (5 mg/mL in PBS) was added and incubated at 37°C for 3 hours. The purple crystals formed were dissolved in 150 µl of DMSO. Absorbance was measured at 570 nm in a multi-plate reader Varioskan™ Lux (Thermo Fisher Scientific, USA; [21]).
(In general: Tetrazolium dyes change colour on reduction, which living cells bring about.)

Series [3] relates to 4T1 mammary tumors. Nature of the series: Tumor size, weight and volume in 4T1 mammary tumor model. It counts as in vivo, BALB/c mice. The following applies: 12.5, 25 and 50 mg/kg body weight of ART vs untreated tumor-bearing mice. The procedure: Mouse mammary 4T1 cells in passage numbers between 7 and 12 (10^4 cells/ml in 50 µl PBS) were injected into the inguinal 4th mammary fat pad of BALB/c mice ([23], [24]). Normal mice received an equal volume of sterile PBS. A palpable tumor was allowed to develop for 14 days ([24]). […] Normal (mammary fat pad surrounding the 4th inguinal mammary pad), mammary tumor, and organs like lungs, kidney, liver, and blood were collected at the end of the experimental schedule. Body weight and tumor volume of each mouse were recorded daily during the tenure of the experiment. Tumor volume was calculated using the following formula: length (mm) × width^2 (mm) × 0.52 ([25]).

Series [4] relates to TNF-α, IL-1β, IL-6 and IL-12. Nature of the series: Serum pro-inflammatory cytokine ELISA. The class given is in vivo, BALB/c mice. The following applies: ART-treated vs untreated tumor-bearing mice. How it is done: Serum isolated from experimental mice, and conditioned media collected from MDA-MB-231 and 4T1 cells, were used to estimate levels of cytokines by ELISA. To prepare the conditioned media, the cell culture medium containing serum was discarded and cells were washed with serum-free DMEM media. […] After incubation, the conditioned media was collected for cytokine analysis. As per the manufacturer’s protocol, samples were added to the multi-analyte ELISArray wells, coated with antibodies for TNF-α, IL-1β, IL-6 and IL-12 and incubated for 2 hours. Detection antibodies were added, followed by 30 minutes incubation with avidin-HRP. After incubating with the developing solution, stop solution (Qiagen) was added to terminate the reaction ([39]). The O.D. was measured at 450 and 570 nm in an ELISA plate reader (Varioskan Lux, Thermo Fisher; USA).

Series [5] concerns 4T1 cells. Nature of the series: Apoptotic cells (Annexin-FITC/PI flow cytometry) with or without CLEC12A overexpression. It counts as cell-based, murine. The following applies: 4T1, non-transfected, ART + (1 µM, 24 hours); without ART 0.2%. The procedure:
(§1) Cells, isolated from normal and treated/untreated tumor tissues by collagenase-hyaluronidase digestion, were washed with Ca^2+-free PBS and stained with Annexin V binding buffer (1X). The cells were then incubated with Annexin V-FITC and propidium iodide (PI) for 15 minutes at 37°C. Cells were eventually analyzed on the BD FACS Aria III (Alexa Fluor at 488nm and PE at 570 nm, respectively). The percentage of apoptotic and necrotic cells were analyzed using the […]™ software (BD Biosciences, USA; [37]). For transfection, MDA-MB-231 and 4T1 cells were grown in a 6-well plate until they reached 70% confluency. CLEC12A-pcDNA recombinant/empty DNA plasmid (2500ng) or pcDNA empty vector (2500ng) was transfected into cells using 5μl Lipofectamine® 2000 reagent. […] Finally, transfection efficiency was confirmed by western blot analysis ([42]).
A general note: A flow cytometer gives signals particle by particle.

The subject of series [6] is tumor cells. Nature of the series: Autophagic cells (acridine orange, flow cytometry) in cells isolated from tumors. The class given is in vivo, BALB/c mice. The following applies: tumor-bearing mice, T+6.25 to T+50 mg/kg, vs Tumor. The procedure: Acidic vesicular organelles (AVOs) were examined by microscopy and quantified using flow cytometry of acridine orange (AO) stained cells. Cells were isolated from tissues by collagenase-hyaluronidase digestion and stained with AO (1µg/ml) by incubation at 37°C for 15 minutes in dark. Following subsequent PBS washes, the cells were observed under Olympus laser-scanning confocal microscope (FV-10 ASW 3.0 viewer image browser) at 450 and 593 nm to determine AVOs.

The subject of series [7] is MDA-MB-231 cells. Nature of the series: Apoptotic cells (Annexin-FITC/PI flow cytometry) with or without CLEC12A overexpression. It counts as cell-based, Human. The following applies: MDA-MB-231, non-transfected, ART + (5 µM, 24 hours); without ART 0.5%. How it is done: as §1

One molecule from paper PMC10748408 (Frontiers in Oncology, 2023) can be followed below.

Molecule `C[C@@H]1CC[C@H]2[C@@H](C)C(=O)O[C@@H]3O[C@@]4(C)CC[C@@H]1[C@]32OO4` [ART, Artemisinin] displayed an IC50 in series [1] of 1 µM. Besides, the “viability of cells isolated from the liver, kidney and lungs” value in series [2] (normal mice treated with ART) is “no loss of viability”; in series [2] (tumor-bearing mice, increasing doses of ART), “significantly increased cell viability”. Besides, the “tumor weight and volume” value in series [3] is recorded as “Significant decrease”. For the same molecule, in series [4], the “levels of pro-inflammatory cytokines (TNF-α, IL-1β, IL-6 and IL-12)” value is on record as “dose-dependent reduction”. Besides, the “percentage of apoptotic cells” value in series [5] is listed as 11%; in series [7] it was 22%. Besides, in series [6], the “percentage of autophagic cells” value was “dose-dependent decrease”.

As usually defined, the IC50 is the midpoint of a concentration-inhibition curve. Low readings indicate inhibition by little substance, high ones a need for much substance.
